Experimental findings from ChEMBL document CHEMBL5726547, “Substituted quinazolines as receptor-type kinase inhibitors” (2017) are described below.

Molecules are shown by their SMILES.

The target of the assay is Vascular endothelial growth factor receptor 1 (Homo sapiens, UniProt P17948). In words: AlphaScreen Assay: In AlphaScreen, when the donor and acceptor beads are close in proximity, a series of photochemical events will give rise to a fluorescent signal upon light activation. Here we use biotinylated poly-(Glu, Tyr) 4:1 as the kinase substrate, streptavidin-coated donor beads and anti-phosphortyrosine antibody PY100-coated acceptor beads. Upon phosphorylation, the peptide substrate …. (In general: Bead proximity is the source of the signal in Alpha formats.)
Chain of Vascular endothelial growth factor receptor 1 (P17948 whole entry): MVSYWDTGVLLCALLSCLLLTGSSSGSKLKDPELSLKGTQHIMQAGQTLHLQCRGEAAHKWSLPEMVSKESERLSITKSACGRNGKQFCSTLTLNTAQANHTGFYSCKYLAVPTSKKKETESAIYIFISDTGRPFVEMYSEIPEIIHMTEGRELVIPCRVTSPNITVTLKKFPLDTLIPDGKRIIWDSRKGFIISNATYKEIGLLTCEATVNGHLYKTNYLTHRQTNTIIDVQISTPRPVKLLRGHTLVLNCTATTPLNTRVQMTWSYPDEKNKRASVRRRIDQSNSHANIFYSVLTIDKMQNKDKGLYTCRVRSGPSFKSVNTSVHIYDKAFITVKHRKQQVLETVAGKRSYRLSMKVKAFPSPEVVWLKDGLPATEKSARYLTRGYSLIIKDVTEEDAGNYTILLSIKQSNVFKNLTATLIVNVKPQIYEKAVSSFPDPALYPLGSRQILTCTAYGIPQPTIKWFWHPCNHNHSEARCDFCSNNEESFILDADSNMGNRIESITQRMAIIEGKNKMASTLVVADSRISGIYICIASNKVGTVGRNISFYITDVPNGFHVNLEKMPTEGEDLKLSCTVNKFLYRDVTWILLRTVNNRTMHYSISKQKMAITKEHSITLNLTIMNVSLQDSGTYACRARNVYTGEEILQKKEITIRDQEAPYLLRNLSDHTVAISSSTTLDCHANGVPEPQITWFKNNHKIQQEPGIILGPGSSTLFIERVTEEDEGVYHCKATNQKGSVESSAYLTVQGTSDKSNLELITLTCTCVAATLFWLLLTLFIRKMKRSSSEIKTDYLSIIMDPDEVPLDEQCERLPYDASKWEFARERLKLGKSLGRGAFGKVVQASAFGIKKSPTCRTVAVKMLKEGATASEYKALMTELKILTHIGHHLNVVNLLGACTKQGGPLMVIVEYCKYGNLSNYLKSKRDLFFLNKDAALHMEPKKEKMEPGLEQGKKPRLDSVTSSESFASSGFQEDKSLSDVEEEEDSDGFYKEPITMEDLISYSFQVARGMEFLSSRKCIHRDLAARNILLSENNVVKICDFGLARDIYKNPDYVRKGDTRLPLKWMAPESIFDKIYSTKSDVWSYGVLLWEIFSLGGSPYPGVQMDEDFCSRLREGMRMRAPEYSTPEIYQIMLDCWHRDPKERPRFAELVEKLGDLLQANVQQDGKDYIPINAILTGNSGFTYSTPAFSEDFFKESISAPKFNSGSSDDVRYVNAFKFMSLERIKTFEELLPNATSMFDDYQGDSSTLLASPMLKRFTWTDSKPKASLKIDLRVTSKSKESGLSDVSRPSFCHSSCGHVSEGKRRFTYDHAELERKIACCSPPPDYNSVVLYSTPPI

Consider `COc1cc2c(Nc3ccc(F)c(Cl)c3F)ncnc2cc1OC[C@H]1CN2CCOCC2CO1` (stereo not given in full), for which the 50% inhibitory concentration (IC50) lay in the range of 50 to 1000 nM. Molecule `COc1cc2c(Nc3ccc(F)c(Cl)c3F)ncnc2cc1OC[C@@H]1CN2CCOCC2CO1` (stereo not given in full) came in with an IC50 of 50 to 1000 nM. For `COc1cc2c(Nc3ccc(Br)c(Cl)c3F)ncnc2cc1OC[C@H]1CN2CCOCC2CO1` (stereo not given in full), the IC50 lay within 50 to 1000 nM. Molecule `COc1cc2c(Nc3cc(Cl)c(Br)cc3F)ncnc2cc1OC[C@H]1CN2CCOCC2CO1` (stereo not given in full) displayed an IC50 of 50 to 1000 nM. As for `COc1cc2c(Nc3cc(Cl)c(Cl)cc3F)ncnc2cc1OC[C@H]1CN2CCOCC2CO1` (stereo not given in full), the IC50 was 50 to 1000 nM.

`COc1cc2c(Nc3cc(Cl)c(Cl)cc3F)ncnc2cc1OC[C@@H]1CN2CCOCC2CO1` (stereo not given in full): the IC50 was in the range of 50 to 1000 nM. Next, `COc1cc2c(Nc3ccc(F)c(Cl)c3F)ncnc2cc1O[C@H]1CO[C@H]2[C@@H]1OC[C@@H]2OC`: 1000 to 20000 nM; `COc1cc2c(Nc3cc(Cl)c(Br)cc3F)ncnc2cc1OC[C@@H]1CN2CCOCC2CO1` (stereo not given in full): 50 to 1000 nM.

`COc1cc2c(Nc3ccc(Cl)c(Cl)c3F)ncnc2cc1OC[C@H]1C[C@@H]2CN(C)C[C@@H]2C1` displayed an IC50 of 50 to 1000 nM. Next, `COc1cc2c(Nc3ccc(Cl)c(Cl)c3F)ncnc2cc1OC[C@H]1CN2CCOCC2CO1` (stereo not given in full): 50 to 1000 nM.

Broadly, the IC50 is the concentration that inhibits the measured activity by half.
